The text below walks through data of the Bradley open melting point set (2014).

SMILES strings stand for the structures. “And” between values parts separate entries of the source, which are not always exact repeats. Equal values may be shown once.

Broadly, the melting point is the temperature, or range, at which the solid turns liquid. Regarding `CC(C)OC(C)C` [diisopropyl_ether], the melting point is -86 °C.

In the case of `O=C(Cl)c1ccccc1` [Benzoyl chloride], the melting point was -1 °C. With `CC(=O)OC1CC2C(CCC3(C)C(C(C)CCCC(C)C)CCC23)C2(C)CCC(=O)C=C12` (stereo unspecified) [3-oxocholest-4-en-6-yl acetate], the melting point is 102 °C. On to `N#Cc1ccc2cc[nH]c2c1` [indole-6-carbonitrile], for which the melting point was 130 °C. For `CC(=O)Oc1ccc(-c2ccccc2)cc1` [4-acetoxybiphenyl], the melting point is 88 °C. Under `O=C(O)[C@@H](O)[C@H](O)C(=O)O` [(2S,3S)-2,3-Dihydroxysuccinic acid] stands 173 °C. Under `C1CCOCC1` [Tetrahydropyran] stands -45 °C. Under `Brc1ccc(Br)c(Br)c1` [1,2,4-tribromobenzene] stands 43 °C (2×) and 44 °C. As for `CCCCS` [1-butanethiol], the melting point is -116 °C. The compound `Cc1ccc(C(C)C)c(O)c1` [thymol] returned a melting point of 51 °C. For `Cc1cccc(C(=O)O)n1` [6-methylpyridine-2-carboxylic acid], the melting point stood at 129 °C.

Take `OB(O)c1ccc(OCc2ccccc2)c(F)c1` [4-benzyloxy-3-fluorobenzeneboronic acid]: the melting point is 130 °C. Consider `CC(O)C1(O)CCC2C3CCC4(C)CC(O)CCC4(C)C3CCC21C` (stereo unspecified) [5-methylpregnane-3,17,20-triol], for which the melting point stood at 219 °C. Under `C[C@@H]1[C@H](O)[C@@H](C)C=CC=CC=CC=CC=CC=CC=C[C@H](O[C@@H]2O[C@H](C)[C@@H](O)[C@H](N)[C@@H]2O)C[C@@H]2O[C@](O)(C[C@@H](O)C[C@@H](O)[C@H](O)CC[C@@H](O)C[C@@H](O)CC(=O)O[C@H]1C)C[C@H](O)[C@H]2C(=O)O` [Amphotericin B] stands 170 °C; under `CCOC(=O)c1cccc(C#N)c1` [ethyl_m-cyanobenzoate], 56 °C; under `Nc1ccccc1-c1ccccc1` [2-aminobiphenyl], 50 °C. Under `Nc1ccccc1S` [2-aminothiophenol] stands 19 °C; under `Nn1c(S)nnc1-c1ccc(Cl)cc1` [4H-1,2,4-triazole-3-thiol, 4-amino-5-(4-chlorophenyl)-], 322 °C. The compound `Cc1ccccc1-c1ccccc1` [2-methylbiphenyl] returned a melting point of 0 °C. Under `NCCNCCNCCN` [N,N'-Bis(2-aminoethyl)ethane-1,2-diamine] stands 12 °C; under `NC(=O)c1ccccc1O` [salicylamide], 140 °C. Regarding `c1ccc2c(c1)Cc1ccccc1O2` [9H-Xanthene], the melting point was determined as 101 °C. `Cc1cc(C)c([N+](=O)[O-])c(C)c1Br` [2-bromo-4-nitro-1,3,5-trimethylbenzene] showed a melting point of 60 °C. As for `O=C(OCCOCn1c2N\C(=N/C(=O)c2nc1)N)C` [O-Acetylacyclovir], the melting point amounted to 242 °C. Consider `Nc1ccc(N)cc1` [1,4-phenylenediamine], for which the melting point was 142 °C. In turn, `NCC[C@H](O)C(=O)N[C@@H]1C[C@H](N)[C@@H](O[C@H]2O[C@H](CN)[C@@H](O)[C@H](O)[C@H]2O)[C@H](O)[C@H]1O[C@H]1O[C@H](CO)[C@@H](O)[C@H](N)[C@H]1O` [Amikacin] returned a melting point of 204 °C. In turn, `Clc1cc2c(cc1Cl)-c1cc(Cl)c(Cl)cc1-2` [Biphenylene, 2,3,6,7-tetrachloro-] came in with a melting point of 239 °C. For the compound `NC(=O)c1ccccc1O` [Salicylamide], the melting point stood at 140 °C. As for `ClC/C=C\CCl` [cis-1,4-dichloro-2-butene], the melting point was -48 °C. Under `NS(=O)(=O)c1c(Cl)cc(Cl)cc1Cl` [2,4,6-trichlorobenzenesulfonamide] stands 180 °C; under `O=[N+]([O-])c1ccccc1C=Cc1ccc2ccccc2n1` [2-[2-(2-Nitro-phenyl)-vinyl]-quinoline], 102 °C. As for `Oc1cccc(Nc2ccccc2)c1` [3-Anilinophenol], the melting point was found to be 81.5 °C.

As for `N#Cc1cc(C#N)c(C#N)cc1C#N` [Benzene-1,2,4,5-tetracarbonitrile], the melting point came to 265 °C. On to `CC(C)(C)OC(=O)NC(CC(=O)O)c1ccccc1F` (stereo unspecified) [3-(boc-amino)-3-(2-fluorophenyl)propionic acid], for which the melting point came out at 143 °C. Under `COC(=O)c1cc(Cl)ccc1[N+](=O)[O-]` [methyl 5-chloro-2-nitrobenzoate] stands 49 °C. With `CC(=O)c1ccccc1-c1ccccc1` [2-acetylbiphenyl], the melting point was 56 °C. `O=C(O)c1cccnc1` [Niacin] had a melting point of 237 °C. Under `CC(=O)OC1CCCC2=CC(=O)CCC21C` (stereo unspecified) stands 90 °C. `CC[C@@H](C(=O)[C@@H](C)[C@@H](O)[C@H](C)[C@@H]1O[C@@H]([C@@H](CC)C(=O)O)CC[C@@H]1C)[C@H]1O[C@]2(C=C[C@@H](O)[C@]3(CC[C@@](C)([C@H]4CC[C@](O)(CC)[C@H](C)O4)O3)O2)[C@H](C)C[C@@H]1C` came in with a melting point of 113 °C.

In the case of `CS(=O)(=O)n1ccnc1` [1-(methylsulfonyl)imidazole], the melting point came out at 89 °C. Under `CNC[C@H](O)c1ccc(O)c(O)c1` [epinephrine] stands 212 °C. `NC(=O)c1cccc2ccccc12` [naphthalene-1-carboxamide]: the melting point amounted to 208 °C. With `Cc1cc(CCl)c(C)cc1CCl` [2,5-bis(chloromethyl)-p-xylene], the melting point stood at 132 °C. Under `CC(C)CCCCC(C)C` [2,7-dimethyloctane] stands -54 °C. Under `Cc1cc(C)cc(N)c1` [3,5-dimethylaniline] stands 10 °C; under `O=C1C=C(c2ccccc2)c2ccccc21` [3-phenyl-1H-inden-1-one], 51 °C; under `NCCOB(c1ccccc1)c1ccccc1` [2-aminoethyl diphenylborinate], 189 °C.

Consider `CCBr` [bromoethane], for which the melting point is -119 °C. Under `COC(=O)c1ccc(N)cc1` [methyl p-aminobenzoate] stands 114 °C; under `Cc1ccc(B(O)O)cc1[N+](=O)[O-]` [4-methyl-3-nitrobenzeneboronic acid], 250 °C; under `CNC(=C[N+](=O)[O-])NCCSCc1ccc(CN(C)C)o1` [ranitidine], 69 °C. Compound `CN1C(=O)OC(C)(C)C1=O` [3,5,5-trimethyloxazolidine-2,4-dione] registered a melting point of 47 °C. Under `S=C=Nc1ccc(Cl)c(Cl)c1Cl` [2,3,4-trichlorophenyl isothiocyanate] stands 70 °C. Under `Cc1cc(Br)cc(C)c1N=C=S` [4-bromo-2,6-dimethylphenyl isothiocyanate] stands 80 °C; under `C=CC=O` [Acrylaldehyde], -87 °C. As for `CC1=CC(=O)c2ccccc2C1=O` [Menadione], the melting point was 102 °C.

`COc1ccc(/N=N/c2sc(CC#N)nc2C)cc1`: the melting point amounted to 159 °C. On to `Cc1ccc(C)n1-c1ccc(F)cc1` [OSM-S-01], for which the melting point worked out at 48.5 °C. In turn, `CC(C)CC(C)(C)C` [2,2,4-Trimethylpentane] showed a melting point of -107 °C.

For the compound `CC(C)(C)c1ccccc1` [tert-butylbenzene], the melting point was -58 °C.

On to `N#Cc1ccccc1` [benzonitrile], for which the melting point is -13 °C. Regarding `c1ccc2c(c1)c1ccccc1c1ccccc21` [Triphenylene], the melting point was 197 °C. Under `Cc1cc[n+]([O-])cc1C(N)=O` [4-methylpyridine-3-carboxamide 1-oxide] stands 280 °C. For the compound `Cc1cc(C(=O)NCCc2ccc(S(=O)(=O)NC(=O)NN3CCCCCC3)cc2)no1` [glisoxepid], the melting point is 189 °C.

Compound `CCOc1ccc(NC(=O)CC(C)O)cc1` (stereo unspecified) [bucetin] registered a melting point of 160 °C. The compound `O=C(O)c1ccccc1` [Benzoic acid] displayed a melting point of 122 °C.

For `COc1ccccc1` [anisole], the melting point is -37 °C.

With `CCN(CC)C(C)CN1c2ccccc2Sc2ccccc21` (stereo unspecified) [ethopropazine], the melting point was 53 °C. For `OCCCCCCO` [1,6-hexanediol], the melting point turned out to be 45 °C. `Sc1ccc(Cl)cc1` [4-chlorothiophenol] came in with a melting point of 50 °C. Under `CC(C)Nc1ccc(Nc2ccccc2)cc1` [N-isopropyl-n'-phenyl-p-phenylenediamine] stands 77 °C; under `Nc1ccc(S(=O)(=O)Nc2nccs2)cc1` [sulfathiazole], 202 °C.

Compound `CCCCCCC(O)CCCCCCCCCCC(=O)O` (stereo unspecified) [12-hydroxystearic acid] gave a melting point of 75 °C. Under `CC(=O)[C@H]1CC[C@H]2[C@@H]3CCC4=CC(=O)CC[C@]4(C)[C@H]3CC[C@]12C` [progesterone] stands 126 °C; under `OCC(O)COc1ccc(Cl)cc1` (stereo unspecified) [3-(4-chlorophenoxy)-1,2-propanediol], 80 °C; under `CNC(=O)NC` [N,N'-dimethylurea], 102 °C. Take `O=C(O)c1ccc2ncccc2c1` [quinoline-6-carboxylic acid]: the melting point amounted to 295 °C. Under `CN1[C@@H]2CC[C@H]1CC(=O)C2` [Tropinone] stands 43 °C; under `OB(O)c1cccc(Br)c1` [3-bromobenzeneboronic acid], 166 °C. `CC(=O)Oc1cccc(C)c1` [m-tolyl_acetate] returned a melting point of 12 °C. Regarding `CC(=O)/N=c1\sc(C(C)=O)nn1-c1ccc(F)cc1`, the melting point turned out to be 158 °C. Under `Fc1ccc(Br)nc1` [2-bromo-5-fluoropyridine] stands 29 °C; under `CCOC(=O)c1ccccc1B(O)O` [2-(ethoxycarbonyl)benzeneboronic acid], 132 °C. In turn, `CCCCCCCCCCCC[N+](C)(C)[O-]` [Dodecyl(dimethyl)amine oxide] showed a melting point of 132 °C. For `COc1ccc2c3c1O[C@H]1[C@@H](O)C=C[C@H]4[C@@H](C2)N(C)CC[C@@]341` [Codeine], the melting point stood at 155 °C. Turning to `C[C@@H](O)[C@H](N)C(=O)O` [L-Threonine], the melting point was 256 °C.
